For the experiment, the target named is T1, recombinant human GST-SYK (Homo sapiens, UniProt P43405).
T1 construct: purchased Carna Biosciences 08-176
The experiment in a line: Homogeneous Time-Resolved Fluorescence (HTRF) assay for the recombinant human SYK enzyme. In kind it is biochemical. As to conditions: recombinant human GST-SYK 5 pM, ATP 25 μM, 10-dose titration; read-out: rhSYK Activity (IC50). As for the experimental part: Homogeneous Time-Resolved Fluorescence (HTRF) Assay for the Recombinant Human SYK Enzyme:
A recombinant GST-hSYK fusion protein was used to measure potency of compounds to inhibit human SYK activity. The recombinant human GST-SYK (Carna Biosciences #08-176) (5 pM final concentration) was incubated with various concentrations of the inhibitor diluted in DMSO (0.1% final concentration) for 10 minutes at room temperature in 15 mM Tris-HCl (pH 7.5), 0.01% tween 20, 2 mM DTT in 384 well plate format. To initiate the reaction the biotinylated substrate peptide (250 nM final concentration) that contains the phosphorylation site for SYK was added with magnesium (5 mM final concentration) and ATP (25 μM final concentration). Final volume of the reaction was 10 μL. Phosphorylation of the peptide was allowed to proceed for 45′ at room temperature. To quench the reaction and detect the phosphorylated product, 2 nM of a Europium-atiti-phosphotyrosine antibody (Perkin Elmer #AD0161) and 70 nM SA-APC (Perkin-Elmer #CR130-100) were added together in 15 mM Tris pH 7.5, 40 mM EDTA, 0.01% tween 20. Final volume of the quenching solution was 10 μL. The resulting HTRF signal was measured after 30 minutes on a EnVision (Perkin-Elmer) reader using a time-resolved fluorescence protocol.
Background: In TR-FRET formats the signal depends on donor and acceptor labels being close together.
As for `CC(C)(C)OC(=O)NCC1CCN(c2ncc(-c3cccc(Nc4nccc(C(F)(F)F)n4)c3)s2)CC1` [Example 138], the IC50 lay within 1000 to 10000 nM.

Take `Cc1cc(CNc2ncc(-c3cccc(Nc4nccc(C(F)(F)F)n4)c3)s2)nn1C` [Example 67]: the IC50 was at most 100 nM.

As to `Cc1cc(Nc2nccc(C(F)(F)F)n2)cc(-c2cnc(N3CCOC3=O)s2)c1` [Example 180], the IC50 was at most 100 nM.

As for `Cc1cc(CNc2ncc(-c3cccc(Nc4nccc(C(F)(F)F)n4)c3)s2)no1` [Example 83], the IC50 is at most 100 nM.

For the molecule `Cc1cc(Nc2nccc(C(F)(F)F)n2)cc(-c2cnc(NCc3cn(C)cn3)s2)c1` [Example 94], the concentration for half-maximal inhibition (IC50) is at most 100 nM.

`Cc1cc(Nc2nccc(C(F)(F)F)n2)cc(-c2cnc(N(C)CCO)s2)c1` [Example 27]: the concentration for half-maximal inhibition (IC50) is at most 100 nM.

In the case of `COc1ccnc(Nc2cc(C)cc(-c3cnc(N4CCCNC(=O)C4)s3)c2)n1` [Example 205], the IC50 is at most 100 nM.

With `Cc1cc(Nc2nccc(C(F)(F)F)n2)cc(-c2csc(N3CCC(O)CC3)n2)c1` [Example 225, 1-[4-(3-methyl-5-{[4-(trifluoromethyl)pyrimidin-2-yl]amino}phenyl)-1,3-thiazol-2-yl]piperidin-4-ol], the half-maximal inhibitory concentration (IC50) fell in the range of 100 to 1000 nM.

As for `Cc1cc(Nc2nccc(OCc3ccccc3)n2)cc(-c2cnc(N3CCCNC(=O)C3)s2)c1` [Example 208], the IC50 was at most 100 nM.

As for `Cc1cc(Nc2nccc(C(F)(F)F)n2)cc(-c2cnc(N3CCOCC3)s2)c1` [Example 122], the IC50 was at most 100 nM.

For `OCCNc1ncc(-c2cccc(Nc3nccc(C(F)(F)F)n3)c2)s1` [Example 2], the half-maximal inhibitory concentration (IC50) was at most 100 nM.

Take `CC(Cc1cnccn1)Nc1ncc(-c2cccc(Nc3nccc(C(F)(F)F)n3)c2)s1` (centres unmarked) [Example 56]: the IC50 is at most 100 nM.

Consider `Cc1ccnc(Nc2cccc(-c3csc(N4CCC(C(N)=O)CC4)n3)c2)n1` [Example 232], for which the half-maximal inhibitory concentration (IC50) was in the range of 100 to 1000 nM.

For `Cc1cc(Nc2nccc(C(F)(F)F)n2)cc(-c2cnc(N3CCC4CN(C)CC4C3)s2)c1` (centres unmarked) [Example 153], the IC50 is at most 100 nM.

In the case of `O=C1OCCN1c1ncc(-c2cccc(Nc3nccc(C(F)(F)F)n3)c2)s1` [Example 175, 3-[5-(3-{[4-(trifluoromethyl)pyrimidin-2-yl]amino}phenyl)-1,3-thiazol-2-yl]-1,3-oxazolidin-2-one], the half-inhibitory concentration (IC50) is at most 100 nM.

Consider `OCCN(c1ncc(-c2cccc(Nc3nccc(C(F)(F)F)n3)c2)s1)C1CCCC1` [Example 49], for which the IC50 was in the range of 100 to 1000 nM.

For the molecule `OC1CCN(c2ncc(-c3cccc(Nc4nccc(C(F)(F)F)n4)c3)s2)C1` (centres unmarked) [Example 158], the IC50 was at most 100 nM.

Consider `Cc1cc(Nc2ncc(Cl)cn2)cc(-c2cnc(N3CCCNC(=O)C3)s2)c1` [Example 200, 4-(5-{3-[(5-chloropyrimidin-2-yl)amino]-5-methylphenyl}-1,3-thiazol-2-yl)-1,4-diazepan-2-one], for which the half-maximal inhibitory concentration (IC50) was at most 100 nM.

Take `CNc1ncc(-c2cccc(Nc3nccc(C(F)(F)F)n3)c2)s1` [Example 21]: the half-maximal inhibitory concentration (IC50) was at most 100 nM.

Consider `OC1CCN(c2ncc(-c3cccc(Nc4nccc(C(F)(F)F)n4)c3)s2)CC1` [Example 129], for which the IC50 was at most 100 nM.

For the molecule `Cc1cc(Nc2nccc(C(F)(F)F)n2)cc(-c2cnc(NCCc3nccs3)s2)c1` [Example 109], the IC50 was at most 100 nM.

As to `OC1(c2ccccc2)CCN(c2ncc(-c3cccc(Nc4nccc(C(F)(F)F)n4)c3)s2)C1` (centres unmarked) [Example 159], the half-inhibitory concentration (IC50) lay in the range of 100 to 1000 nM.

On to `Cc1cc(Nc2nccc(C(F)(F)F)n2)cc(-c2cnc(N(C)CCc3c[nH]c4ccccc34)s2)c1` [Example 90], for which the IC50 was in the range of 100 to 1000 nM.

Consider `Cc1cc(Nc2nccc(C(F)(F)F)n2)cc(-c2cnc(NCCc3c[nH]c4ccccc34)s2)c1` [Example 112], for which the IC50 is at most 100 nM.

For the molecule `Cc1nn(C)c(C)c1CNc1ncc(-c2cccc(Nc3nccc(C(F)(F)F)n3)c2)s1` [Example 79], the IC50 is at most 100 nM.

On to `CCNC(=O)Nc1cc(Nc2nccc(C(F)(F)F)n2)cc(-c2cnc(N3CCCNC(=O)C3)s2)c1` [Example 185, 1-ethyl-3-(3-[2-(3-oxo-1,4-diazepan-1-yl)-1,3-thiazol-5-yl]-5-{[4-(trifluoromethyl)pyrimidin-2-yl]amino}phenyl)urea], for which the IC50 was at most 100 nM.

`Cn1cc(CNc2ncc(-c3cccc(Nc4nccc(C(F)(F)F)n4)c3)s2)cn1` [Example 62]: the IC50 is at most 100 nM.

Take `Cc1cc(Nc2ncc(F)cn2)cc(-c2cnc(N3CCCNC(=O)C3)s2)c1` [Example 201]: the half-maximal inhibitory concentration (IC50) is at most 100 nM.

Turning to `Cc1cc(Nc2nccc(C(F)(F)F)n2)cc(-c2cnc(NCCO)s2)c1` [Example 28], the half-maximal inhibitory concentration (IC50) is at most 100 nM.

As to `CCNC(=O)Nc1cc(Nc2nccc(C(F)(F)F)n2)cc(-c2cnc(NCCO)s2)c1` [Example 188], the half-inhibitory concentration (IC50) was at most 100 nM.

`CSCCNc1ncc(-c2cccc(Nc3nccc(C(F)(F)F)n3)c2)s1` [Example 44]: the IC50 was at most 100 nM.

For the molecule `OC1CCCN(c2ncc(-c3cccc(Nc4nccc(C(F)(F)F)n4)c3)s2)C1` (centres unmarked) [Example 131], the IC50 was at most 100 nM.

On to `FC(F)(F)c1ccnc(Nc2cccc(-c3cnc(-n4ccnc4)s3)c2)n1` [Example 178], for which the IC50 was at most 100 nM.

On to `Cc1cc(Nc2nccc(C(F)(F)F)n2)cc(-c2cnc(NC(C)c3cccnc3)s2)c1` (centres unmarked) [Example 99], for which the concentration for half-maximal inhibition (IC50) was at most 100 nM.

For the molecule `Cc1cc(Nc2nccc(C(F)(F)F)n2)cc(-c2cnc(NC[C@H]3CC[C@@H](N)CC3)s2)c1` [Example 98], the IC50 is at most 100 nM.

Take `Cc1cc(Nc2nccc(C(F)(F)F)n2)cc(-c2cnc(NCC(O)C(F)F)s2)c1` (centres unmarked) [Example 95]: the IC50 was at most 100 nM.

For `FC1CCN(c2ncc(-c3cccc(Nc4nccc(C(F)(F)F)n4)c3)s2)CC1` [Example 140], the IC50 lay within 100 to 1000 nM.

With `CCc1ccnc(Nc2cc(C)cc(-c3cnc(N4CCCNC(=O)C4)s3)c2)n1` [Example 207], the IC50 was at most 100 nM.

`Cc1cc(Nc2ncc(C3CC3)cn2)cc(-c2cnc(N3CCCNC(=O)C3)s2)c1` [Example 202]: the 50% inhibitory concentration (IC50) is at most 100 nM.

For the molecule `FC(F)(F)c1ccnc(Nc2cccc(-c3cnc(NCC4CCCNC4)s3)c2)n1` (centres unmarked) [Example 59], the IC50 was at most 100 nM.

For `COc1ccc(CCNc2ncc(-c3cccc(Nc4nccc(C(F)(F)F)n4)c3)s2)cc1` [Example 54], the half-maximal inhibitory concentration (IC50) was 100 to 1000 nM.

For `O=C(O)C1CCN(c2nc(-c3cccc(Nc4nccc(C(F)(F)F)n4)c3)cs2)CC1` [Example 229, 1-[4-(3-{[4-(trifluoromethyl)pyrimidin-2-yl]amino}phenyl)-1,3-thiazol-2-yl]piperidine-4-carboxylic acid], the IC50 lay in the range of 100 to 1000 nM.

Take `CC(C)(CO)Nc1ncc(-c2cccc(Nc3nccc(C(F)(F)F)n3)c2)s1` [Example 23]: the half-maximal inhibitory concentration (IC50) is at most 100 nM.

For the molecule `Cc1ccsc1CNc1ncc(-c2cccc(Nc3nccc(C(F)(F)F)n3)c2)s1` [Example 75], the IC50 is 1000 to 10000 nM.

For `CCCSc1ccnc(Nc2cc(C)cc(-c3cnc(N4CCCNC(=O)C4)s3)c2)n1` [Example 220], the concentration for half-maximal inhibition (IC50) is at most 100 nM.

`Cc1cc(C)n(CCNc2ncc(-c3cccc(Nc4nccc(C(F)(F)F)n4)c3)s2)n1` [Example 63]: the IC50 lay within 100 to 1000 nM.

Consider `OCCCCCCN(Cc1ccccc1)c1ncc(-c2cccc(Nc3nccc(C(F)(F)F)n3)c2)s1` [Example 26], for which the concentration for half-maximal inhibition (IC50) was in the range of 100 to 1000 nM.

Usually IC50 stands for the concentration that gives 50% inhibition.

Values taken from patent publication US8735417B2, “Aminopyrimidines as Syk inhibitors” (Merck Sharp & Dohme Corp., priority 2009, dated 2014).
